Source: patent US20090163546A1, “DIACYLGLYCEROL ACYLTRANSFERASE INHIBITORS” (priority 2007, published 2009)

system: DGAT; experiment: DGAT Phospholipid FlashPlate Assay; type: biochemical; conditions: DGAT pellet, DAG-coated PL-FlashPlate, 14C-Pal-CoA, 37° C. for 1 hour; read-out: Activity in DGAT Phospholipid FlashPlate Assay (A = IC50 < 0.10 μM, B = IC50 ≧ 0.10 μM)
Description: Materials for the assay were: PL-FlashPlate: Phospholipid FlashPlates from PerkinElmer, catalog number SMP108; DAG (1,2-Dioleoyl-sn-glycerol) 10 mM suspended in water containing 0.1% Triton X-100; ^14C-Pal-CoA (palmitoyl coenzyme A, [palmitoyl-1-^14C]) from PerkinElmer, catalog number NEC-555 with a specific activity of 55 mCi/mmol; and DGAT pellet, with a protein concentration of 9.85 mg/ml.
Aqueous buffers were prepared or purchased as follows: The coating buffer (CB) was purchased from PerkinElmer, catalog number SMP900A; the reaction buffer (RB) was 50 mM Tris-HCl, pH 7.5, 100 mM NaCl, 0.01 % BSA in water; the washing buffer (WB) is 50 mM Tris-HCl, pH 7.5, 100 mM NaCl, 0.05 % deoxycholic acid sodium salt in water; the dilution buffer (DB) was 50 mM Tris-HCl, pH 7.5, 100 mM NaCl, 1 mM EDTA, 0.2% Triton X-100 in water.
1,2-Dioleoyl-sn-glycerol (DAG, 10 mmoles) was diluted to 500 μM with coating buffer (CB). The diluted DAG solution was then added to 384-well PL-FlashPlates at 60 μl per well, and incubated at room temperature for 2 days. The coated plates were then washed twice with washing buffer (WB) before use. Test compounds were serial diluted to 2000, 666.7, 222.2, 74.1, 24.7, 8.2, 2.7 and 0.9 μM in 100% DMSO. Diluted compound were further diluted 10 fold with reaction buffer (RB). ^14C-Pal-CoA was diluted to 8.3 μM with RB. The DGAT pellet was diluted to 0.13 mg protein/ml with dilution buffer (DB) immediately before it was added to the PL-FlashPlates to start the reaction. 20 μl of the RB-diluted compounds (or 10% DMSO in RB for Total and Blank), 15 μl of RB diluted 14C-Pal-CoA and 15 μl of DB diluted DGAT pellet (DB without DGAT for Blanks) were transferred to each well of the PL-FlashPlates. The reaction mixtures were incubated at 37° C. for 1 hour. The reactions were stopped by washing 3 times with WB. Plates were sealed with Top-seal and read on a Topcount instrument.
Calculation of IC50: The IC50 values for each compound were generated using an Excel template. The Topcount rpm readings of Total and Blank were used as 0% and 100% inhibition. The percent inhibition values of reactions in the presence of compounds were calculated, and plotted against compound concentrations. All data were fitted into a Dose Response One Site model (4 parameter logistic model) as the following:
(A+((B−A)/(1+((x/C)̂D)))),
with A and B as the bottom and top of the curve ([…]), respectively, and C as IC50 and D as Hill Coefficient of the compound.

Q: Which IC50 does the source give for `COc1ccc(Cl)cc1NC(=O)Nc1ccc2c(c1)c(=O)[nH]n2Cc1ccccc1` [Example 1, 1-(1-Benzyl-3-oxo-2,3-dihydro-1H-indazol-5-yl)-3-(5-chloro-2-methoxy-phenyl)-urea] here?
A: Its IC50 is at least 0.1 µM.

Q: How did the IC50 turn out when `CCOc1ccccc1NC(=O)Nc1ccc2c(c1)c(=O)[nH]n2Cc1ccccc1` [Example 2, 1-(1-Benzyl-3-oxo-2,3-dihydro-1H-indazol-5-yl)-3-(2-ethoxy-phenyl)-urea] was run?
A: Its IC50 is at least 0.1 µM.

Q: With `COc1ccccc1NC(=O)Nc1ccc2c(c1)c(=O)[nH]n2Cc1ccccc1` [Example 3, 1-(1-Benzyl-3-oxo-2,3-dihydro-1H-indazol-5-yl)-3-(2-methoxy-phenyl)-urea] as the molecule, how does the IC50 read?
A: The IC50 was at least 0.1 µM.

Q: Which IC50 does the source give for `CCCn1[nH]c(=O)c2cc(NC(=O)Nc3ccccc3OC(F)(F)F)ccc21` [Example 4, 1-(3-Oxo-1-propyl-2,3-dihydro-1H-indazol-5-yl)-3-(2-trifluoromethoxy-phenyl)-urea] here?
A: The IC50 was at least 0.1 µM.

Q: For `CCCCc1ccc(NC(=O)Nc2ccc3c(c2)c(=O)[nH]n3CCC)cc1` [Example 5, 1-(4-Butyl-phenyl)-3-(3-oxo-1-propyl-2,3-dihydro-1H-indazol-5-yl)-urea], which IC50 is on record?
A: The IC50 was at least 0.1 µM.

Q: For `CCCn1[nH]c(=O)c2cc(NC(=O)Nc3cc(C)ccc3OC)ccc21` [Example 6, 1-(2-Methoxy-5-methyl-phenyl)-3-(3-oxo-1-propyl-2,3-dihydro-1H-indazol-5-yl)-urea], which IC50 is on record?
A: The IC50 was at least 0.1 µM.

Q: `CCCn1[nH]c(=O)c2cc(NC(=O)Nc3cc(Cl)ccc3OC)ccc21` [Example 7, 1-(5-Chloro-2-methoxy-phenyl)-3-(3-oxo-1-propyl-2,3-dihydro-1H-indazol-5-yl)-urea] was tested. Which IC50 did it give?
A: Its IC50 is under 0.1 µM.

Q: `CCCn1[nH]c(=O)c2cc(NC(=O)Nc3ccccc3C(C)C)ccc21` [Example 8, 1-(2-Isopropyl-phenyl)-3-(3-oxo-1-propyl-2,3-dihydro-1H-indazol-5-yl)-urea] was tested. Which IC50 did it give?
A: The IC50 was at least 0.1 µM.

Q: Which IC50 does the source give for `CCCn1[nH]c(=O)c2cc(NC(=O)Nc3ccc(Cl)c(Cl)c3)ccc21` [Example 9, 1-(3,4-Dichloro-phenyl)-3-(3-oxo-1-propyl-2,3-dihydro-1H-indazol-5-yl)-urea] here?
A: Its IC50 is under 0.1 µM.

Q: How did the IC50 turn out when `CCCn1[nH]c(=O)c2cc(NC(=O)Nc3ccccc3CC)ccc21` [Example 10, 1-(2-Ethyl-phenyl)-3-(3-oxo-1-propyl-2,3-dihydro-1H-inidazol-5-yl)-urea] was run?
A: Its IC50 is under 0.1 µM.

Q: For `CCCn1[nH]c(=O)c2cc(NC(=O)Nc3cc(Cl)ccc3Cl)ccc21` [Example 11, 1-(2,5-Dichloro-phenyl)-3-(3-oxo-1-propyl-2,3-dihydro-1H-indazol-5-yl)-urea], which IC50 is on record?
A: Its IC50 is at least 0.1 µM.

Q: With `CCCn1[nH]c(=O)c2cc(NC(=O)Nc3ccc(Cl)cc3Cl)ccc21` [Example 12, 1-(2,4-Dichloro-phenyl)-3-(3-oxo-1-propyl-2,3-dihydro-1H-indazol-5-yl)-urea] as the molecule, how does the IC50 read?
A: Its IC50 is at least 0.1 µM.

Q: With `CCCn1[nH]c(=O)c2cc(NC(=O)Nc3ccc(C(F)(F)F)cc3)ccc21` [Example 13, 1-(3-Oxo-1-propyl-2,3-dihydro-1H-indazol-5-yl)-3-(4-trifluoromethyl-phenyl)-urea] as the molecule, how does the IC50 read?
A: Its IC50 is at least 0.1 µM.

Q: Which IC50 does the source give for `CCCn1[nH]c(=O)c2cc(NC(=O)Nc3ccccc3)ccc21` [Example 14, 1-(3-Oxo-1-propyl-2,3-dihydro-1H-indazol-5-yl)-3-phenyl-urea] here?
A: The IC50 was at least 0.1 µM.

Q: `CCCn1[nH]c(=O)c2cc(NC(=O)Nc3cccc(Cl)c3)ccc21` [Example 15, 1-(3-Chloro-phenyl)-3-(3-oxo-1-propyl-2,3-dihydro-1H-indazol-5-yl)-urea] was tested. Which IC50 did it give?
A: The IC50 was at least 0.1 µM.

Q: Which IC50 does the source give for `CCCn1[nH]c(=O)c2cc(NC(=O)Nc3cccc(C)c3)ccc21` [Example 16, 1-(3-Oxo-1-propyl-2,3-dihydro-1H-indazol-5-yl)-3-m-tolyl-urea] here?
A: The IC50 was at least 0.1 µM.

Q: For `CCCn1[nH]c(=O)c2cc(NC(=O)Nc3cccc(F)c3)ccc21` [Example 17, 1-(3-Fluoro-phenyl)-3-(3-oxo-1-propyl-2,3-dihydro-1H-indazol-5-yl)-urea], which IC50 is on record?
A: The IC50 was at least 0.1 µM.

Q: Which IC50 does the source give for `CCCn1[nH]c(=O)c2cc(NC(=O)Nc3ccc(F)cc3F)ccc21` [Example 18, 1-(2,4-Difluoro-phenyl)-3-(3-oxo-1-propyl-2,3-dihydro-1H-indazol-5-yl)-urea] here?
A: The IC50 was at least 0.1 µM.

Q: `CCCn1[nH]c(=O)c2cc(NC(=O)Nc3cccc(Br)c3)ccc21` [Example 19, 1-(3-Bromo-phenyl)-3-(3-oxo-1-propyl-2,3-dihydro-1H-indazol-5-yl)-urea] was tested. Which IC50 did it give?
A: Its IC50 is at least 0.1 µM.

Q: How did the IC50 turn out when `CCCn1[nH]c(=O)c2cc(NC(=O)Nc3ccccc3OC)ccc21` [Example 20, 1-(2-Methoxy-phenyl)-3-(3-oxo-1-propyl-2,3-dihydro-1H-indazol-5-yl)-urea] was run?
A: Its IC50 is at least 0.1 µM.

Q: How did the IC50 turn out when `CCCn1[nH]c(=O)c2cc(NC(=O)Nc3ccccc3Cl)ccc21` [Example 21, 1-(2-Chloro-phenyl)-3-(3-oxo-1-propyl-2,3-dihydro-1H-indazol-5-yl)-urea] was run?
A: The IC50 was at least 0.1 µM.

Q: For `CCCn1[nH]c(=O)c2cc(NC(=O)Nc3ccccc3F)ccc21` [Example 22, 1-(2-Fluoro-phenyl)-3-(3-oxo-1-propyl-2,3-dihydro-1H-indazol-5-yl)-urea], which IC50 is on record?
A: The IC50 was at least 0.1 µM.

Q: How did the IC50 turn out when `COc1c(Cl)cccc1NC(=O)Nc1ccc2c(c1)c(=O)[nH]n2Cc1ccccc1` [Example 23, 1-(1-Benzyl-3-oxo-2,3-dihydro-1H-indazol-5-yl)-3-(3-chloro-2-methoxy-phenyl)-urea] was run?
A: The IC50 was at least 0.1 µM.

Q: How did the IC50 turn out when `CCOC(=O)Cn1[nH]c(=O)c2cc(NC(=O)Nc3ccccc3CC)ccc21` [Example 24, {5-[3-(2-ethyl-phenyl)-ureido]-3-oxo-2,3-dihydro-indazol-1-yl}-acetic acid ethyl ester] was run?
A: The IC50 was at least 0.1 µM.

Q: `CCc1ccccc1NC(=O)Nc1ccc2c(c1)c(=O)[nH]n2CCOCCOC` [Example 25, 1-(2-ethyl-phenyl)-3-{1-[2-(2-methoxy-ethoxy)-ethyl]-3-oxo-2,3-dihydro-1H-indazol-5-yl}-urea] was tested. Which IC50 did it give?
A: Its IC50 is at least 0.1 µM.

Q: How did the IC50 turn out when `CCc1ccccc1NC(=O)Nc1ccc2c(c1)c(=O)[nH]n2CCOC` [Example 26, 1-(2-ethyl-phenyl)-3-[1-(2-methoxy-ethyl)-3-oxo-2,3-dihydro-1H-indazol-5-yl]-urea] was run?
A: Its IC50 is at least 0.1 µM.

Q: How did the IC50 turn out when `CCCn1[nH]c(=O)c2cc(NC(=O)Nc3cccc4cccnc34)ccc21` [Example 27, 1-(3-Oxo-1-propyl-2,3-dihydro-1H-indazol-5-yl)-3-quinolin-8-yl-urea] was run?
A: The IC50 was under 0.1 µM.

Q: Which IC50 does the source give for `CCCn1[nH]c(=O)c2cc(NC(=O)Nc3ccccc3N3CCCCC3)ccc21` [Example 28, 1-(3-Oxo-1-propyl-2,3-dihydro-1H-indazol-5-yl)-3-(2-piperidin-1-yl-phenyl)-urea] here?
A: Its IC50 is at least 0.1 µM.

Q: For `CCCn1[nH]c(=O)c2cc(NC(=O)Nc3ccccc3C(C)CC)ccc21` (stereo not shown) [Example 29, 1-(2-sec-Butyl-phenyl)-3-(3-oxo-1-propyl-2,3-dihydro-1H-indazol-5-yl)-urea], which IC50 is on record?
A: The IC50 was at least 0.1 µM.

Q: How did the IC50 turn out when `O=C(Nc1ccc2c(c1)c(=O)[nH]n2Cc1ccccc1)Nc1ccccc1N1CCCCC1` [Example 30, 1-(1-Benzyl-3-oxo-2,3-dihydro-1H-indazol-5-yl)-3-(2-piperidin-1-yl-phenyl)-urea] was run?
A: The IC50 was at least 0.1 µM.

Q: How did the IC50 turn out when `C#Cc1cccc(NC(=O)Nc2ccc3c(c2)c(=O)[nH]n3CCC)c1` [Example 31, 1-(3-Ethynyl-phenyl)-3-(3-oxo-1-propyl-2,3-dihydro-1H-indazol-5-yl)-urea] was run?
A: The IC50 was at least 0.1 µM.

Q: Which IC50 does the source give for `CCCn1[nH]c(=O)c2cc(NC(=O)Nc3cccc(C(F)(F)F)c3)ccc21` [Example 32, 1-(3-Oxo-1-propyl-2,3-dihydro-1H-indazol-5-yl)-3-(3-trifluoromethyl-phenyl)-urea] here?
A: Its IC50 is at least 0.1 µM.

Q: Which IC50 does the source give for `CC(C)Oc1cccc(NC(=O)Nc2ccc3c(c2)c(=O)[nH]n3Cc2ccccc2)c1` [Example 33, 1-(1-Benzyl-3-oxo-2,3-dihydro-1H-indazol-5-yl)-3-(3-isopropoxy-phenyl)-urea] here?
A: The IC50 was at least 0.1 µM.

Q: How did the IC50 turn out when `O=C(Nc1cccc(C(F)(F)F)c1)Nc1ccc2c(c1)c(=O)[nH]n2Cc1ccccc1` [Example 34, 1-(1-Benzyl-3-oxo-2,3-dihydro-1H-indazol-5-yl)-3-(3-trifluoromethyl-phenyl)-urea] was run?
A: Its IC50 is at least 0.1 µM.
